Experimental data from patent publication US20260250318A1, “COMPOSITIONS AND METHODS FOR CROSSING THE BLOOD BRAIN BARRIER” (VOYAGER THERAPEUTICS, INC., priority 2022, published 2026).

Legend:
Conditions in all cases: synthetic library passage 3, intravenous, relative to wild-type AAV9
brain [1] = test: NGS fold enrichment of synthetic library (passage 3) in BALB/c mice, first cross-species screen; type: in vivo
How it was run: (§1)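 Fold enrichment versus wild-type AAV9 was derived by NGS of RT-PCR-amplified RNA from nervous tissue, collected e.g. 28 days after IV dosing […]. The library (passage 3) was given to two NHPs aged 2-4 years and to 6-8-week BALB/c and C57Bl/6 mice (n=3 each).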

brain [2] = test: NGS fold enrichment of synthetic library (passage 3) in C57Bl/6 mice, first cross-species screen; type: in vivo
How it was run: as §1

[3] = test system: brain, spinal cord, and DRG of the NHPs; test: NGS fold enrichment of synthetic library (passage 3) in NHPs, first cross-species screen; type: in vivo, cynomolgus macaques (Macaca fascicularis)
How it was run: as §1

[4] = RNA from brain of BALB/c mice, NGS
[5] = RNA from brain of C57Bl/6 mice, NGS
[6] = RNA from spinal cord of NHPs, NGS

Row | Sequence | Fold enrichment over AAV9 in the brain of Mice (BALB/c) (brain [1]; RNA NGS, brain of BALB/c mice) | Fold enrichment over AAV9 in the brain of Mice (C57Bl/6) (brain [2]; RNA NGS, brain of C57Bl/6 mice) | Fold enrichment over AAV9 in the brain of NHPs ([3]; RNA NGS, brain of NHPs) | Fold enrichment over AAV9 in the spinal cord of NHPs ([3]; RNA NGS, spinal cord of NHPs) | Fold enrichment over AAV9 in the brain of Mice (BALB/c) (brain [1]; [4]) | Fold enrichment over AAV9 in the brain of Mice (C57Bl/6) (brain [2]; [5]) | Fold enrichment over AAV9 in the brain of NHPs ([3]; RNA from brain of NHPs, NGS) | Fold enrichment over AAV9 in the spinal cord of NHPs [3, 6]
1 | GSGLAHLGGQNQQT | 0.794 fold | 0.749 fold | 1.064 fold | 2.191 fold |  |  |  | 
2 | GSGNMHASRQNQQT |  |  |  |  | 0.687 fold | 0.782 fold | 1.238 fold | 3.878 fold
3 | GMGRHSASGQNQQT | 0.389 fold | 0.470 fold | 1.417 fold | 6.500 fold |  |  |  | 
4 | GTREMPLSGQNQQT | 0.538 fold | 1.436 fold | 2.339 fold | 2.830 fold |  |  |  | 
5 | GQLVTFTSGQNQQT |  |  |  |  | 0.294 fold | 0.819 fold | 1.331 fold | 11.282 fold
6 | GSGQNQRVSNSQQT | 0.985 fold | 1.086 fold | 2.146 fold | 0.492 fold |  |  |  | 
7 | GASSLATSGQNQQT |  |  |  |  | 0.217 fold | 0.423 fold | 1.337 fold | 0.703 fold
8 | GSGVSTYNIQNQQT | 0.520 fold | 0.769 fold | 3.609 fold | 2.912 fold |  |  |  | 
9 | GSLLTTASGQNQQT | 0.635 fold | 0.938 fold | 1.822 fold | 0.780 fold |  |  |  | 
10 | GSGQNQQQIGGNST | 0.576 fold | 0.877 fold | 1.741 fold | 6.169 fold |  |  |  | 
11 | GSGQNRKPASFAQT | 1.061 fold | 0.892 fold | 3.204 fold | 0.000 fold |  |  |  | 
12 | GSLFLATGGQNQQT |  |  |  |  | 0.485 fold | 0.775 fold | 1.220 fold | 0.000 fold
13 | GHHTTVQSGQNQQT | 0.755 fold | 0.851 fold | 2.177 fold | 6.245 fold |  |  |  | 
14 | GPLVNASSGQNQQT | 0.343 fold | 0.831 fold | 1.434 fold | 5.239 fold |  |  |  | 
15 | GSGQNQQTSGVLTL | 0.782 fold | 1.104 fold | 1.553 fold | 0.000 fold |  |  |  | 
16 | GSGQNQQLANMVTT | 0.987 fold | 1.253 fold | 1.014 fold | 1.739 fold |  |  |  | 

Row | Sequence | Fold enrichment over AAV9 in the brain of Mice (BALB/c) (brain [1]; RNA NGS, brain of BALB/c mice) | Fold enrichment over AAV9 in the brain of Mice (C57Bl/6) (brain [2]; RNA NGS, brain of C57Bl/6 mice) | Fold enrichment over AAV9 in the brain of NHPs ([3]; RNA NGS, brain of NHPs) | Fold enrichment over AAV9 in the spinal cord of NHPs ([3]; RNA NGS, spinal cord of NHPs) | Fold enrichment over AAV9 in the brain of Mice (BALB/c) (brain [1]; [4]) | Fold enrichment over AAV9 in the brain of Mice (C57Bl/6) (brain [2]; [5]) | Fold enrichment over AAV9 in the brain of NHPs ([3]; RNA from brain of NHPs, NGS) | Fold enrichment over AAV9 in the spinal cord of NHPs [3, 6]
17 | GSGQNKDHSTRRQT |  |  |  |  | 0.477 fold | 0.384 fold | 1.197 fold | 0.000 fold
18 | GSGQNQQTAMRSTT | 0.665 fold | 0.656 fold | 1.581 fold | 2.588 fold |  |  |  | 
19 | GSGIIPVSSQNQQT | 0.253 fold | 0.642 fold | 6.352 fold | 0.000 fold |  |  |  | 
20 | GPPQHMTSGQNQQT | 0.677 fold | 0.509 fold | 1.457 fold | 1.547 fold |  |  |  | 
21 | GSGSPHVKIQNQQT | 2.227 fold | 2.173 fold | 16.854 fold | 9.068 fold |  |  |  | 
22 | GSGQNQQTALYNNT |  |  |  |  | 0.726 fold | 0.660 fold | 1.307 fold | 0.862 fold
23 | GSEQTRQRGQNQQT |  |  |  |  | 0.815 fold | 0.574 fold | 1.333 fold | 2.172 fold
24 | GSGSVSQLGQNQQT | 0.375 fold | 0.596 fold | 3.184 fold | 2.307 fold |  |  |  | 
25 | GAGLIMHSGQNQQT | 0.511 fold | 0.565 fold | 1.425 fold | 1.408 fold |  |  |  | 
26 | GSLHHDNHGQNQQT | 0.463 fold | 0.968 fold | 1.976 fold | 0.980 fold |  |  |  | 
27 | GARIQNASGQKQQT | 1.039 fold | 1.220 fold | 2.300 fold | 2.103 fold |  |  |  | 
28 | GSGQNTRLQLGQQT | 0.234 fold | 0.181 fold | 1.452 fold | 1.747 fold |  |  |  | 
29 | GSGQHAAPGHNQQT |  |  |  |  | 0.199 fold | 0.600 fold | 1.195 fold | 5.999 fold
30 | GSSPAPNSGQNQQT | 0.368 fold | 0.719 fold | 1.106 fold | 2.229 fold |  |  |  | 
31 | GSHSQSGHGQNQQT | 0.318 fold | 0.696 fold | 1.413 fold | 1.240 fold |  |  |  | 
32 | GSGASRMSIQNQQT | 0.417 fold | 0.801 fold | 1.045 fold | 0.111 fold |  |  |  | 
